Experimental data: patent EP1222180B1, “ENANTIOMERIC COMPOUNDS FOR TREATMENT OF CARDIAC ARRHYTHMIAS AND METHODS OF USE” (ARYx Therapeutics, priority 1999, dated 2001)

Tests used:
[1] = system: anesthetized rats; assay: Anti-arrhythmic activity in anesthetized rats (benzene/adrenaline challenge, EKG recording); format: in vivo, Male Sprague-Dawley rats; details: for protection against tachyarrhythmia (heart rate increase after adrenaline): administered from time 0 to time 120 minutes, Figure 3; for inhibition of the formation of ventricular premature beats (VPB): period of drug administration (time 0 to 120 min); for Heart rate (beats/minute) / Inhibition of VPB / Inhibition of tachycardia / Number of VPB / PR interval / QRS interval / QT interval: isolated enantiomer compared to the racemate, 4 mg/kg i.v. then 12 mg/kg/h for 2 hours; for anti-VPB activity at the end of the washout period: time 180 min
Method: Male Sprague-Dawley rats with body weights of 410 ± 30 g (Harlan Sprague Dawley Inc., Indianapolis, IN), were anesthetized with sodium pentobarbital (50 mg/kg i.p. - Butler Co., Columbus, OH). The skin from the neck area was removed and the jugular veins on both sides were cleared of connective tissue. Both jugular veins and the left carotid artery were isolated, and the latter tied up cranially with a surgical silk (ETHICON 4-0, Ethicon Inc., Australia). A plastic catheter ([…] 19ga, Vecton Dickinson, Sandy, UT), filled with a solution containing 10% sodium heparin (Elkins-Sinn Inc., Cherry Hill, NJ) in normal saline (100 U/ml sodium heparin), was introduced into the artery and fixed with surgical silk.
The catheter was connected to a pressure transducer (OHMEDA P23-XL, Ohmeda Medical Devices Division Inc., Madison, WI), filled with the same heparinized 0.9% NaCl solution, to register beat-to-beat arterial pressure. Needle electrodes were inserted s.c., and together with the pressure transducer, were joined to a GOULD TA 2000 recorder. Leads II, aVF and intraarterial blood pressure were monitored simultaneously throughout the experiments and recorded at certain intervals at 50 and 200 mm/sec paper speed.
The surgery was completed with an incision on the trachea where a short plastic tubing was placed and the animal was connected to a rodent-model ventilator (HARVARD Model 683, Harvard Apparatus, Inc., Holliston, MA). The animals were ventilated in a controlled way, depending on their spontaneous breathing frequency (55-75/min).
Drug administrations were carried out through i.v. catheters (TERUMO 24 GA*3/4", Terumo Medical Corp., Elkton, MD) inserted into both jugular veins. The left side was used for drug infusions by means of a syringe pump (SAGE INSTRUMENTS, Model 341B, Orion Res. Inc., Boston, MA), and the right side was used for adrenaline injections. The experiments were started after at least 15 minutes of stabilization. Benzene/adrenaline challenges were performed as follows: the respirator inlet was connected to a 50-ml bubbler half-full with benzene (Fisher Scientific, Fair Lawn, NJ) so that the inspired air was saturated with benzene vapor. The animal was ventilated with benzene vapor for two minutes. The tidal volume was typically 1 ml/100g of animal. During the last 30 seconds of benzene ventilation, 10 µg/kg adrenaline solution (in 0.9% NaCl) was injected into the right jugular vein. […] These arrhythmias could be elicited repeatedly. After three control VTs (at -30, -20 and -10 minutes), the test compounds were injected slowly during 30 seconds at a dose of 4 mg/kg i.v., immediately followed by a slow infusion of 12 mg/kg/h for 2 hours. The flow rate during the infusion period was 1 ml/h.
There were 5 rats per test compound and each animal served as its own control. The ability of the different drugs to suppress arrhythmias was tested against repeated benzene/adrenaline challenges at 5, 15, 30, 45, 60, 90, 120 (end of drug infusion), 135, 150, 165 and 180 minutes after the i.v. bolus injection. The amplitudes of the systolic arterial pressure and diastolic arterial pressure […] with the help of a pressure-amplitude calibration curve. Heart rate, number of ventricular complexes during the occurrence of VTs and VPBs, and certain ECG parameters (PR, QRS, QT durations and RR cycle lengths in msec) were also recorded and measured manually. At each time-point, 3-5 cycles were measured and the average values were entered into EXCEL Windows 97. The average and standard deviation for the five experimental animals per compound were calculated.

[2] = format: in vitro ADME; details: human; for hydrolysis half-life: plasma
Method: Venous blood (60 ml) was collected in heparinized 15-ml Vacutainer® tubes from the forearm of five human volunteers. Each tube contained 1,000 units of heparin sodium salt. The blood was immediately centrifuged at 2,000 g for 10 minutes and the plasma was collected. Immediately after collection, the plasma was divided into 2-ml aliquots in borosilicate glass tubes (5-ml capacity) capped with a plastic stopper. The tubes were then equilibrated in a 37°C-water bath for at least 15 minutes before the test samples were added. Stock solutions were prepared by dissolving 25 µmoles (about 18 mg) of each of the test compounds in 10 ml of deionized water. To each of the glass tubes containing 2 ml of fresh plasma, equilibrated at 37°C, was added 40 µl of the stock solutions (one test compound per tube). The plasma/stock solutions were then mixed. Samples (250 µl) were collected at time 0 (immediately after mixing test compounds in plasma) and then at 30, 60, 90, 120, 180, 240, and 300 minutes. The test tubes were capped, to avoid concentration due to evaporation, and left in the 37°C bath during the entire experiment. […] The tubes were then capped and vortexed, then kept at -20°C until analysis. […] The supernatant was collected for injection in the HPLC system. […] The detection wavelength was set at 242 nm, and the injected volume was 100 µL. The HPLC peaks were recorded, and the integrated values were plotted against time using the SIGMAPLOT software version 4.0 for WINDOWS. The resulting curves were fitted to a first-order exponential decay equation from which hydrolysis half-lives were calculated.

[3] = benzene vapors and adrenaline challenge, Figure 2

| Plasma half-life [2] | hydrolysis half-life [2] | SMILES | protection against tachyarrhythmia (heart rate increase after adrenaline) [1] | inhibition of the formation of ventricular premature beats (VPB) [1, 3] | time at which anti-VPB activity is lost [1, 3] | Heart rate (beats/minute) [1] | Inhibition of VPB [1] | Inhibition of tachycardia [1] | Number of VPB [1] | PR interval [1] | QRS interval [1] | QT interval [1] | anti-VPB activity at the end of the washout period [1, 3] | effects on the QT segment of the EKG recording (Class-III properties) ([1]; Figure 4) | effects on the PR segment of the EKG recording (Class-IV activity) ([1]; Figure 6) |
| --- | --- | --- | --- | --- | --- | --- | --- | --- | --- | --- | --- | --- | --- | --- | --- |
|  |  | CC[C@H](C)OC(=O)Cc1oc2ccccc2c1C(=O)c1cc(I)c(OCCN(CC)CC)c(I)c1 [ATI-2042] | very good protection against this tachyarrhythmia |  |  |  |  |  |  |  |  |  |  |  |  |
|  |  | CC[C@H](C)OC(=O)Cc1oc2ccccc2c1C(=O)c1cc(I)c(OCCN(CC)CC)c(I)c1 [R,S-2042] | the least potent and shortest acting | even less active than either the R- or the S-isomer |  |  |  |  |  |  |  |  |  |  |  |
| 5.0 h | 5 h | CC[C@@H](C)OC(=O)Cc1oc2ccccc2c1C(=O)c1cc(I)c(OCCN(CC)CC)c(I)c1 [R-2042, (R)-sec-Butyl 2-[3-(3,5-diiodo-4-(2-diethylaminoethyloxy)benzoyl)]benzofurane-acetate] |  |  | ~100 min | lower | longer | longer | lower | shorter | no change | no change | completely inactive |  |  |
| 7.3 h | 7.3 h | CC[C@H](C)OC(=O)Cc1oc2ccccc2c1C(=O)c1cc(I)c(OCCN(CC)CC)c(I)c1 [S-2042, (S)-sec-Butyl 2-[3-(3,5-diiodo-4-(2-diethylaminoethyloxy)benzoyl)]benzofurane-acetate] | more potent and longer acting then R-2042 | totally inhibited the formation of ventricular premature beats for the whole period of drug administration |  | lower | longer | longer | lower | longer | longer | longer | still retained part of its activity | the most potent and the longest acting | much more potent than R-2042 and the racemate R,S-2042 |
